Source: article PMC4602232, “Structural basis for recognition of Emi2 by Polo-like kinase 1 and development of peptidomimetics blocking oocyte maturation and fertilization” (Scientific Reports, 2015)
“Also recorded” adds a separate entry of the source. Non-standard residues stand in square brackets, D forms with d. No end group written: not given here. pT = C[C@@H](OP(=O)(O)O)[C@H](N)C(=O)O

B1: Phosphorylated Emi2 146-177 peptide (phospho-Thr152 and phospho-Thr176) (peptide, UniProt Q8CDI2 146-177, looked up)
peptide: SPLVTS[pT]IKTEDVVSNSQNSRLHFSQHKTS[pT]I
notes: Made on Rink amide resin, so probably a C-terminal amide (surmised); source: synthetic peptide (Fmoc SPPS, Rink amide resin, RP-HPLC)
B2: Phosphorylated Emi2 169-177 peptide (phospho-Thr176) (peptide)
peptide: FSQHKTS[pT]I-NH2
notes: as for B1

Tests used:
[1] = tested on: Emi2^1–300-mCherry reporter in MII oocytes; assay: Emi2^1–300-mCherry degradation after parthenogenetic activation (time-lapse microscopy); assay type: cell-based, mouse; settings: SrCl2 treatment in the presence of 100 nM BI2536; n = 3 oocytes
Source text: pRN3-Emi2^1−300-mCherry plasmids containing the Plk1 recognition site and a degron for a SCF family ubiquitin ligase were constructed from synthetic Emi2^1–300 gene fragments and subcloned into the pRN3 vector as an mCherry fusion by means of Gibson Assembly[50]. The plasmids were linearized by digestion with SfiI; then cRNA was synthesized with T3 mMessage mMachine (Life Technologies). In vitro transcripts were purified by phenol-chloroform extraction and isopropyl alcohol precipitation and stored at −80 °C until use.
GV stage oocytes were injected with various peptidomimetics at 300 μM in a 50% aqueous solution (w/v) of dimethyl sulfoxide. Peptidomimetics were injected into oocyte by means of a Eppendorf Femto Jet (Eppendorf AG, Hamburg, Germany) and a Nikon Diaphot ECLIPSE TE300 inverted microscope (Nikon UK Ltd., Kingston upon Thames, Surrey, UK) equipped with a Narishige MM0-202N hydraulic three-dimensional micromanipulator (Narishige Inc., Sea Cliff, NY, USA) and subjected to in vitro maturation as described above. As a control, the BG34 reagent with threonine residues instead of phosphothreonine[35] was injected into oocytes at 300 μM. To test the oocytes for parthenogenetic activation, we collected mature MII oocytes and injected them with various reagents as described above for GV oocytes. […]

bromodomain BRD4 = settings: cited from earlier work
Source text: On the other hand, due to the high degree of similarity among kinase domains’ ATP-binding pockets, achieving good specificity is a difficult task. […] Because PBD exists only in the Plk family (Plk1 through Plk4), targeting of this site can result in high specificity along with enhanced binding affinity; these properties may faci ...

mouse oocyte maturation = settings: cited from earlier work
Source text: In Xenopus and in mice, the general scheme of calcium-mediated signal transduction has been well established, but the detailed molecular mechanism has been elusive. For instance, Plk1 is involved in Emi2 phosphorylation and destabilization, but the mechanism of binding of Plk1 to Emi2 has not yet been determined. Plk1 is known to be involved in various cell cycle-related processes, and recently it received attention as a target of anticancer treatments.

[2] = molecular target: T1, Mouse Plk1 Polo box domain (Plk1-PBD, amino acid residues 367-603) (mouse, UniProt Q07832 367-603); assay: ITC; phosphorylated peptide (1.2 mM) injected into Plk1-PBD (0.1 mM) in the cell; 15 °C; 20 mM Tris-Cl pH 8.0, 300 mM NaCl, 3 mM DTT; one-site binding model; settings: both partners purified
T1 construct: Polo-like kinase 1 (Plk1), mouse, polo box domain, residues 367-603; TEV site ENLYFQ/S between the His6 tag and the PBD; cleavage between Q and S should leave a Ser before residue 367 (surmised); also called polo box domain of Polo-like kinase 1; source: E. coli BL21 (DE3), purified (Ni-NTA, TEV digestion, Superdex 75 gel filtration); not shown: His6, N-terminal, cleaved
T1 sequence (Q07832 367-603): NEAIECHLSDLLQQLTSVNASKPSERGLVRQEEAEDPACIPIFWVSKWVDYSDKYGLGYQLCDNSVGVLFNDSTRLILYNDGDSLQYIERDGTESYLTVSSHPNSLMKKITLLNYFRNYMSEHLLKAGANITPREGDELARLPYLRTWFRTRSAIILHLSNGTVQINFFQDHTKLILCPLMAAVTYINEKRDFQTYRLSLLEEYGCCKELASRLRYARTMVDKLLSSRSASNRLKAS

Molecule	decrease of Emi2-mCherry fluorescence after parthenogenetic activation (in words) [1]	binding and inhibition of BRD4 (in words) (bromodomain BRD4)	mouse oocyte maturation (in words) (mouse oocyte maturation)	stoichiometry N [2]	Kd [2] [µM]
CC[C@@H]1C(=O)N(C)c2cnc(Nc3ccc(C(=O)NC4CCN(C)CC4)cc3OC)nc2N1C1CCCC1 [BI2536]	did not cause any reduction in fluorescence even after 100 min; also recorded: blocks Emi2 degradation after parthenogenetic activation by SrCl2	bind and inhibit bromodomain BRD4 at nanomolar concentration	impairs mouse oocyte maturation		
B1				0.47 ratio of Emi2^146–177 to Plk1-PBD	
B2				0.92 ratio of Emi2^169–177 to Plk1-PBD	29.6
